Results from ChEMBL document CHEMBL1143887, “Novel amino linkers enabling efficient labeling and convenient purification of amino-modified oligonucleotides” (Bioorg Med Chem, 2008).

Test: Dissociation constant, pKa of the compound
Type: physicochemical

pKa: 8.9
Structure (SMILES): NC[C@H](COCc1cccc2ccccc12)OC(=O)NCCCCCCO
